Assay results as given in publication PMC10349806 (Nature Communications, 2023).
Where “and” joins values, the source holds several entries; their conditions need not be identical. Identical values can stand only once.

Key:
PfCRT variant E207K/K80E = assay: CQ uptake assay, oocytes expressing E207K/K80E; type: cell-based, Plasmodium falciparum
Experimental: (§1) Site-directed mutagenesis of PfCRT^Dd2 was performed as described using the megaprimer method with overlap extension[21],[54]. The primer pairs used are listed in Supplementary Table 6. Please note that a codon-optimized and oocyte-adapted version of PfCRT^Dd2 was used[22] (Supplementary Fig. 16). The resulting DNA fragment was cloned into the SP64T expression vector and verified by sequencing.
(§2) Oocytes were obtained as described previously. Briefly, adult (>2 years old) female X. laevis frogs (NASCO) were anesthetized in a cooled solution of ethyl 3-amino benzoate methanesulfonate (0.1%, w/v), followed by a surgical removal of parts of the ovary. The ovary lobes were carefully dissected and small pieces of oocytes were incubated in Ca^2+-free ND96 buffer (96 mM NaCl, 2 mM KCl, 1 mM MgCl2 buffered with 5 mM HEPES/NaOH, pH 7.5) supplemented with collagenase D (0.1%, w/v; Roche), BSA (0.5%, w/v), and 9 mm Na2HPO4 at 18 °C for 14-16 h while gentle shaking. After incubation, the oocytes were carefully washed several times with ND96 buffer (96 mM NaCl, 2 mM KCl, 1.8 mM CaCl2, 1 mM MgCl2 buffered with 5 mM HEPES/NaOH, pH 7.5) supplemented with 100 mg l^−1 gentamycin). Defolliculated and healthy-looking stage V-VI oocytes were manually selected for RNA microinjection. The RNA was generated as following: The codon-optimized sequences of PfCRT variants were cloned into the pSP64T expression vector. After vector linearization using the restriction endonucleases BamHI or SalI (New England Biolabs), transcription was performed using the in vitro SP6 mMessage mMachine Kit (Ambion)[34]. The obtained RNA was kept at −80 °C and diluted with nuclease-free water to a concentration of 0.6 μg μl^−1. Precision-bore glass capillary tubes (3.5-inch glass capillaries; Drummond Scientific Co.) were pulled on a vertical puller (P-87 Flaming/Brown micropipette puller, Sutter Instrument Co.), graduated, and placed on a microinjector (Nanoject II Auto-Nanoliter Injector, Drummond Scientific Co.). 50 nl of nuclease-free water alone (control oocytes) or 50 nl of 0.6 μg μl^−1 RNA were injected under stereomicroscopic control. Injected oocytes were incubated for 46–72 h at 18 °C with twice-daily buffer changes before usage in experiments.
(§3) Drug uptake assays were performed as described previously[21],[22],[24],[34]. […] The radioactivity of each sample was measured using a liquid scintillation analyzer Tri-Carb 4910 TR (PerkinElmer). Oocytes that were injected with water instead of RNA were analyzed in parallel, representing the uptake of a drug by diffusion and/or endogenous permeation pathways. […]

PfCRT variant R374A = assay: CQ uptake assay, oocytes expressing R374A; type: cell-based, Plasmodium falciparum
Experimental: as §1
as §2, with “Precision-bore glass capillary tubes (3.5-inch glass capillaries; Drummond Scientific Co.) were pulled on a vertical puller (P-87 Flaming/Brown micropipette puller, Sutter Instrument Co.), graduated, and placed on a microinjector (Nanoject II Auto-Nanoliter Injector, Drummond Scientific Co.). 50 nl of nuclease-free water alone (control oocytes) or 50 nl of 0.6 μg μl^−1 RNA were injected under stereomicroscopic control. Injected oocytes were incubated for 46–72 h at 18 °C with twice-daily buffer changes before usage in experiments.” left out
as §3

[1] = E207K/K80E, 50 µM CQ, 1 h, mean ± SEM

`CCN(CC)CCCC(C)Nc1ccnc2cc(Cl)ccc12` (stereo not shown) [CQ, chloroquine] was tested, and the “Activity at pH 4.5” value (PfCRT variant E207K/K80E; [1]) was 1.85 ± 0.84 pmol h-1 oocyte-1, the “Activity at pH 6.0” value (PfCRT variant E207K/K80E; [1]) was 4.75 ± 0.91 pmol h-1 oocyte-1 and the “E207K/K80E transport activity pH 4.5” value (PfCRT variant E207K/K80E; pH 4.5, individual replicates (Fig 6a)) was 3.47 pmol oocyte-1 h-1 and 1.46 pmol oocyte-1 h-1 and 0.63 pmol oocyte-1 h-1. The “E207K/K80E transport activity pH 6.0” value (PfCRT variant E207K/K80E; pH 6.0, individual replicates (Fig 6a)) was 6.4 pmol oocyte-1 h-1 and 4.59 pmol oocyte-1 h-1 and 3.25 pmol oocyte-1 h-1, the “Activity at pH 4.5” value (PfCRT variant R374A; 50 µM CQ, 1 h, mean ± SEM) was 0.90 ± 0.14 pmol h-1 oocyte-1 and the “Activity at pH 6.0” value (PfCRT variant R374A; 50 µM CQ, 1 h, mean ± SEM) was 3.81 ± 0.61 pmol h-1 oocyte-1. It also gave a R-value (PfCRT variant R374A; CQ transport at pH 4.5 / pH 6.0) of 0.23 ± 0.03.
